Patent US20200024574A1, “STEM CELL-DERIVED ASTROCYTES, METHODS OF MAKING AND METHODS OF USE” (MEMORIAL SLOAN-KETTERING CANCER CENTER, priority 2017, published 2020)
“Also recorded” adds a separate entry of the source.

Key:
Type in all cases: cell-based, human
LTNSCs = test: Differentiation of LTNSCs or neural rosettes (no NFIA induction) in media containing gliogenic molecules; settings: short term, 14 days, no NFIA induction (FIG. 2B)
Method: These cells were also TUJ1 negative implying their homogenous nature of being nearly 100% neural stem cells (FIG. 2A). […] In the FBS condition, the expression of gliogenic factors was assessed and expression of SOX9 and NFIA was more enriched when cultured with FBS compared to the other treatments (FIG. 3).
(§1) For immunohistochemistry, cells were fixed in PBS containing 4% paraformaldehyde (EMS) for 10 minutes and permeabilized using PBS with 0.5% Triton-X for 5 minutes and stored in PBS with 0.2% Tween-20. The blocking solution contained 5% donkey serum in PBS with 0.2% Tween-20. Primary antibodies were diluted in the blocking solution and typically incubated overnight at 4 C. Secondary antibodies conjugated to Alexa 488, Alexa 555 or Alexa 647 (Thermo) were added to the cells and incubated for 30 minutes. Nuclei were identified by staining the cells with 4′,6-diamidino-2-phenylindole (DAPI, Thermo).

NFIA-induced LTNSCs = test: Astrocyte differentiation of NFIA-induced LTNSCs after doxycycline removal with glial differentiation factors; settings: for expression of GFAP after removing the expression of NFIA: NFIA exposed cells, especially in the absence of FGF2 (FIG. 4C)
Method: Typically, regionally patterned neural stem cells are infected with lentiviral particles containing FUW-NFIA and FUW-M2-rtTA and induced with doxycycline (dox) one day after infection. Cells are kept in dox media for a minimum of 5 days and then switched to the astrocyte induction media (N2 media with 10 ng/ml HB-EGF (R&D Systems) and 10 ng/ml Leukemia inhibitory factor (Peprotech)) without dox for a minimum of 5 days. Glial progenitors and astrocytes can be isolated using CD44.
as §1

neurogenic NSCs [1] = test: Cell cycle analysis by FACS on NSCs treated with TGFβ1; settings: TGFβ1 for 48 hours, FACS (FIG. 12L)
Method: Cells were dissociated nuclei were isolated for cell cycle analysis. Propidium Iodine (250 ng/ml) was added to the cells and analyzed by FACS. A minimum of 10,000 events was analyzed per condition. Data acquired was imported and analyzed by the Flowjo software.

neurogenic NSCs [2] = test: Western blot analysis of NFIA in NSCs treated with TGFβ1; settings: TGFβ1 for 7 days, Western blot (FIG. 12K)
neurogenic NSCs [3] = test: Immunofluorescence for NFIA and GFAP after TGFβ treatment followed by LIF medium; settings: TGFβ followed by LIF-containing medium for 2 weeks (FIG. 12M)
Method: as §1

Question: What does the source list for “LIF: leukemia inhibitory factor, glial-promoting factor”?
Answer: fate of LTNSCs: neurons (TUJ1/βIII-Tubulin) versus GFAP+ astrocytes (LTNSCs): became neurons rather than GFAP+ astrocytes; also recorded: increased expression of the neuronal marker TUJ1 rather than the astrocyte marker GFAP; GFAP expression (quantitative PCR) (NFIA-induced LTNSCs; 5 days dox then dox removal, +LIF versus +EGF/FGF2 (FIG. 10E)): strongly induced; efficiency of astrocyte differentiation (GFAP+ cells, AQP4-H2B-GFP reporter) after dox removal (NFIA-induced LTNSCs; LIF compared with BMP4 or FBS): most efficient in generating GFAP+ cells and activating the AQP4-H2B-GFP reporter; expression of GFAP after removing the expression of NFIA (NFIA-induced LTNSCs): enhanced the expression of GFAP

Question: With “TGFβ1: upstream activator of NFIA; transforming growth factor beta” as the molecule, how does the “cells in the G1 phase of the cell cycle” value (neurogenic NSCs [1]) read?
Answer: enriched for cells in the G1 phase of the cell cycle

Question: And the “expression of NFIA” value (neurogenic NSCs [2])?
Answer: induced the expression of NFIA

Question: What about the “appearance of GFAP+ cells” value (neurogenic NSCs [3]) of the same molecule?
Answer: resulted in the appearance of GFAP+ cells

B1: BMP4: gliogenic molecule, bone morphogenetic protein (protein, UniProt P12644 293-408, looked up)
Bone morphogenetic protein 4: SPKHHSQRARKKNKNCRRHSLYVDFSDVGWNDWIVAPPGYQAFYCHGDCPFPLADHLNSTNHAIVQTLVNSVNSSIPKACCVPTELSAISMLYLDEYDKVVLKNYQEMVVEGCGCR
Question: How did the “fate of LTNSCs: neurons (TUJ1/βIII-Tubulin) versus GFAP+ astrocytes” value (LTNSCs) turn out when B1 was run?
Answer: became neurons rather than GFAP+ astrocytes; also recorded: increased expression of the neuronal marker TUJ1 rather than the astrocyte marker GFAP

Question: And the “expression of GFAP after removing the expression of NFIA” value (NFIA-induced LTNSCs)?
Answer: enhanced the expression of GFAP
